The values that follow come from ChEMBL document CHEMBL2150972, “Hepatitis C virus protease inhibitors: patent highlight” (ACS Med Chem Lett, 2012).

Assay [1] concerns Hepatitis C virus. As to the kind of experiment: Antiviral activity against HCV by HCVSPF-CY1B assay. In kind it is functional, organism-based, Hepacivirus hominis.
Assay [2] concerns Hepatitis C virus. As to the kind of experiment: Antiviral activity against HCV assessed as inhibition of viral RNA replication by cell based luciferase reporter gene assay. The assay is classed as functional, organism-based, Hepacivirus hominis. (A reporter such as luciferase makes a cellular process visible.)

In the case of `CCOc1cc(O[C@@H]2C[C@H]3C(=O)N[C@]4(C(=O)NS(=O)(=O)C5CC5)C[C@H]4/C=C/CC[C@@H]4CC4[C@H](NC(=O)c4ccn(C)n4)C(=O)N3C2)ccn1` (some centres not stated), the EC50 (commonly the concentration that produces a half-maximal response) in the assay on Hepatitis C virus [1] was 0.034 µM.

In the case of `O=C(N[C@H]1CCCCC/C=C/[C@@H]2C[C@@]2(C(=O)NS(=O)(=O)C2CC2)NC(=O)[C@@H]2C[C@@H](Oc3ccncc3)CN2C1=O)OCCF`, the EC50 in the assay on Hepatitis C virus [2] stood at 0.29 µM.
